Data set [1] concerns S. epidermidis ATCC 35984. The data set is described as follows: MIC and MBC assays, broth dilution. It is filed as cell-based. Particulars: for MBC / MIC/MBC: S. epidermidis ATCC 35984; for MIC: ATCC35984, S. epidermidis ATCC 35984, MH broth. As for the experimental part:
(§1) MICs of the derivatives for S. epidermidis and S. aureus were determined by the broth dilution method according to the National Committee for Clinical Laboratory (NCCLS) recommendations (Turnidge and Bordash [2007]). Twofold dilutions of the derivatives in tubes containing 4 ml of Mueller-Hinton broth (MH, Sigma, Germany) were made to concentrations from 200 to 0.39 μM. Overnight cultures of the bacteria were adjusted to the 0.5 McFarland standards and inoculated 1:200 into the MH broth and then incubated at 37 °C for 16–20 h. The lowest concentration inhibiting visible growth of the bacteria was recorded as minimal inhibitory concentration (MIC).
In general terms: Broth dilution looks for growth in wells or tubes with falling amounts of substance.

Another data set relates to E. coli ATCC 25922. As to the kind of experiment: MIC, broth dilution. The data set is classed as cell-based. Conditions: Escherichia coli, ATCC25922, 200 μM highest concentration used. As for the experimental part: Bacterial strains S. epidermidis ATCC 12228 (nonbiofilm forming), S. epidermidis ATCC 35984 (biofilm forming), S. aureus ATCC 49230, and S. aureus ATCC 25923 were from the American Type Culture Collection (ATCC, Manassas, USA) and were cultured in tryptic soy broth medium (TSB; Oxoid Ltd., Basingstoke, England). Ten clinical methicillin-resistant staphylococcal isolates, five MRSA isolates and five MRSE isolates, were collected from Huadong Teaching Hospital in Shanghai. Escherichia coli ATCC 25922 was grown in Luria-Bertani (LB) broth. The six compounds used in this study (H2-38, H2-39, H2-57, H2-60, H2-74, and H2-81) were screened from 56 derivatives of compound 2 in which the functional groups were modified, but the thiazolidine core structure was unchanged. The compounds were synthesized by Nanjing University of Technology. To generate the derivative compounds, halogen atoms were introduced into 4-thiazolidinone compounds that contained carboxylic acid moieties of phenoxy-acetic acid, (5-vinyl-furan-2-yl)-benzoic acid or (5-vinyl-thiophene-2-yl)-benzoic acid. The derivatives were dissolved in dimethyl sulfoxide (DMSO; Amresco, USA) to 200 mM for use as stock solutions.
as §1

The test system of data set [2] is mature (24-h-old) biofilms of S. epidermidis ATCC 35984. The data set is described as follows: Bacterial viability in mature biofilms by CLSM with Live/Dead staining. It is filed as cell-based. Particulars: 4 × MIC, 16 h, SYTO9/PI. The method, then: A diluted overnight culture of the bacteria was inoculated into cell culture glass bottom dishes (WPI, USA) and incubated at 37 °C for 24 h. […] The biofilms were washed with PBS and stained with SYTO9 and propidium iodide (PI), both of which were used at a concentration of 1 μM. SYTO9-stained live cells and PI-stained cells dead in biofilms were visualized by a Leica TCS SP5 confocal laser scanning microscope with a ×63 1.4-NA oil immersion objective. Three-dimensional biofilm images were created by IMARIS 7.0.0 software (Bitplane).

The test system of data set [3] is S. epidermidis ATCC 35984. The data set is described as follows: Kinetics of killing planktonic S. epidermidis. Conditions: for effect on growth in initial treatment phase: 1/4MIC (0.38 μM) and 1/2MIC (0.75 μM), 2 to 6 h. It is filed as cell-based. As for the experimental part: An overnight culture of S. epidermidis ATCC 35984 was inoculated into 20 ml of fresh MH broth at a 1:200 dilution (10^6 CFU/ml). […] Every 2 h, 100 μl of the culture was diluted and spread on agar plates. Viable bacteria (CFU) were counted and the rate and extent of killing were determined by plotting CFU/ml against time (D’Arezzo et al. [2012]; Lee et al. [2008]). This experiment was independently repeated three times.

Data set [4] has as its system 24-h biofilms of S. epidermidis ATCC 35984. The data set is described as follows: Rabbit subcutaneous S. epidermidis biofilm infection model. The data set is classed as in vivo, New Zealand White rabbits. Conditions: 6.3 μM (4 × MIC), 1 ml local injection at 0, 24, 48 h; 72 h exposure. The method, then:
To test the effectiveness in vivo of H2-74 and H2-81, 24-h biofilms of S. epidermidis grown on polyethylene disks were imbedded subcutaneously into the New Zealand White rabbits and treated with the derivatives for 72 h in a modification of the method used previously (He et al. [2011]). Disks were cut from polyethylene 96-well plates (8 mm diameter, 1 mm thickness), sterilized with 75 % ethanol and placed in a Petri dish (100 mm diameter). An overnight culture of S. epidermidis ATCC 35984 (20 ml) was inoculated into the dish and incubated at 37 °C for 24 h. The disks covered with biofilms were then implanted subcutaneously in female New Zealand White rabbits (2.0–2.5 kg) that had been anesthetized with pentobarbital sodium (5 mg/kg i.v.). Four incisions (10 mm) were made on the back of the rabbit along the spine bilaterally after removal of fur, and the sub cutis was carefully dissected to form a 2-cm × 3-cm cavity. Two biofilm-covered polyethylene disks were implanted into each cavity, and to minimize the effect of between-animal variation, four different treatments were given locally to each rabbit.
Vancomycin (128 mg/l) and 0.1 % DMSO were administered as the controls. Twenty-four hours after the last treatment, the rabbits were euthanized and the implants were taken out with sterile forceps. Biofilms were scraped from the disks, and the viable bacteria were determined by CFU counting, as previously described (He et al. [2011]). All animals were housed and used in compliance with the guidelines of the Institute of Animal Care and Use Committee, and the protocol was approved by the committee.

[5] abbreviates: Staphylococcus epidermidis, ATCC35984.

In brackets after ≈: the same amount, converted by molar mass.

A word on the MBC: it is the smallest concentration meeting the test's criterion for killing. Broadly, the MIC is the least concentration at which growth counts as inhibited. Lower therefore signals a more susceptible organism. `CCc1ccccc1/N=C1\S/C(=C\c2ccc(OCC(=O)O)c(OC)c2)C(=O)N1c1ccccc1CC` [Compound 2, {2-{4-{3-(2-ethylphenyl)-2-[(2-ethylphenyl)imino]-4-oxothiazolidin-5-ylidene}methyl}-2-methoxyphenoxy}acetic acid]: the MBC in data set [1] was 100.0 µM (≈ 51.7 µg/mL); in data set [1] (setting [5]), 100 µM (≈ 51.7 µg/mL). The MIC/MBC in data set [1] is 1/4. Also, the MIC in data set [1] (Staphylococcus epidermidis) is 25 µM (≈ 12.9 µg/mL); against E. coli ATCC 25922, greater than 200 µM.

For the molecule `O=C(O)c1cccc(-c2ccc(C=C3SC(=Nc4ccc(Cl)cc4)N(c4ccc(Cl)cc4)C3=O)o2)c1` [H2-38, 3-{5-{{3-(4-chlorophenyl)-2-[(4-chlorophenyl)imino]-4-oxothiazolidin-5-ylidene}methyl}furan-2-yl}benzoic acid], in data set [1], the MIC/MBC is 1/8. The molecule further returned an MBC in data set [1] (setting [5]) of 12.5 µM (≈ 6.69 µg/mL). Also, the “proportion of viable cells in mature biofilms” value (“proportion of viable cells” for short) in data set [2] stood at 42.3%. This molecule also gave an MIC in the data set with E. coli ATCC 25922 greater than 200 µM.

For `O=C(O)c1ccc(-c2ccc(C=C3SC(=Nc4ccc(Cl)cc4)N(c4ccc(Cl)cc4)C3=O)o2)cc1` [H2-39, 4-{5-{{3-(4-chlorophenyl)-2-[(4-chlorophenyl)imino]-4-oxothiazolidin-5-ylidene}methyl}furan-2-yl}benzoic acid], in data set [1], the MIC/MBC is given as 1/8. For the same molecule, the MBC in data set [1] (setting [5]) is 12.5 µM (≈ 6.69 µg/mL). Moreover, the “proportion of viable cells” value in data set [2] was determined as 55.6%. The molecule also came in with an MIC against E. coli ATCC 25922 greater than 200 µM.

Take `O=C(O)c1ccc(-c2ccc(/C=C3\S/C(=N\c4ccccc4)N(c4ccc(Cl)cc4)C3=O)o2)cc1` [H2-57, 4-{5-{{3-(4-chlorophenyl)-2-[(4-phenyl)imino]-4-oxothiazolidin-5-ylidene}methyl}furan-2-yl}benzoic acid]: in data set [1], the MIC/MBC is reported as 1/4. Besides, the MIC in data set [1] (Staphylococcus epidermidis) was no more than 3.1 µM; against E. coli ATCC 25922, greater than 200 µM. Moreover, in data set [1] (setting [5]), the MBC is 12.5 µM (≈ 6.26 µg/mL). Moreover, the “proportion of viable cells” value in data set [2] is recorded as 17.1%.

Turning to `O=C(O)c1ccc(-c2ccc(C=C3SC(=Nc4ccc(F)cc4)N(c4ccc(F)cc4)C3=O)s2)cc1` [H2-60, 4-{5-{{3-(4-fluorophenyl)-2-[(4-fluorophenyl)imino]-4-oxothiazolidin-5-ylidene}methyl}thiophene-2-yl}benzoic acid], the MIC/MBC in data set [1] was 1/8. In data set [1] (setting [5]), this molecule returned an MBC of 12.5 µM (≈ 6.48 µg/mL). In addition, in data set [2], the “proportion of viable cells” value is recorded as 14%. The molecule also yielded a minimum inhibitory concentration (MIC) with E. coli ATCC 25922 greater than 200 µM.

`O=C(O)COc1ccc(C=C2SC(=Nc3ccc(Cl)cc3)N(c3ccc(Cl)cc3)C2=O)cc1` [H2-74, 2-{4-{[3-(4-chlorophenyl)-2-[(4-chlorophenyl)imino]-4-oxothiazolidin-5-ylidene}methyl}phenoxy}acetic acid]: the MIC/MBC in data set [1] is recorded as 1/16. The same molecule yielded an MBC in data set [1] (setting [5]) of 25 µM (≈ 12.5 µg/mL). For the same molecule, the “effect on growth in initial treatment phase” value in data set [3] is given as “inhibited the growth of S. epidermidis”. Moreover, the viable cells is reported as 3.2 × 10^3 CFU/ml in data set [3] (2 × MIC (3.1 μM), 12 h) and “more than 3.1 × 10^2 CFU/ml” in data set [3] (4 × MIC (6.3 μM), 10 h). Further, in data set [2], the “proportion of viable cells” value is listed as 32.5%. Also, the MIC in the data set with E. coli ATCC 25922 is greater than 200 µM. Moreover, the “viable bacteria recovered from implanted disks” value in data set [4] turned out to be 2.91 ± 0.42 log10 CFU/cm^2.

Regarding `O=C(O)c1ccc(-c2ccc(/C=C3\S/C(=N\c4ccccc4)N(c4ccc(F)cc4)C3=O)s2)cc1` [H2-81, 4-{5-{{3-(4-fluorophenyl)-2-[(4-phenyl)imino]-4-oxothiazolidin-5-ylidene}methyl}thiophene-2-yl}benzoic acid], the MIC/MBC in data set [1] was 1/4. Also, the MBC in data set [1] (setting [5]) is 6.3 µM (≈ 3.15 µg/mL). Moreover, the “effect on growth in initial treatment phase” value in data set [3] was “inhibited the growth of S. epidermidis”. For the same molecule, the viable cells result in data set [3] (2 × MIC (3.1 μM), 12 h) is on record as “less than 3 × 10^2 CFU/ml”; in data set [3] (4 × MIC (6.3 μM), 10 h), less than 10 CFU/ml. For the same molecule, in data set [3] (4 × MIC, 10 h, as restated in discussion), the CFU remaining is reported as ~ 10 CFU. Further, the “proportion of viable cells” value in data set [2] was 12.3%. The MIC in the data set with E. coli ATCC 25922 was greater than 200 µM. Also, the “viable bacteria recovered from implanted disks” value in data set [4] came to 2.18 log10 CFU/cm^2.
